Tests used:
[1] = test system: melan-a cells; assay: Cellular melanin content (SRB combined assay); type: cell-based, murine; details: α-MSH, 72 hrs
Procedure: Murine melan-a cells (an immortalized, non-tumorigenic murine melanocyte cell line) were obtained from Chinese University of Hong Kong. Cells were cultured in RPMI 1640 medium. Culture medium was supplemented with 10% FBS and 1% penicillin-streptomycin and the cells were incubated at 37° C. in 5% CO2. […] The tested chemical agents (e.g., 6-CEPN and Kojic acid) were individually dissolved as a stock solution at a concentration of 100 mM in 100% dimethyl sulfoxide (DMSO). The stock solution was diluted using culture medium to the desired final concentrations immediately prior to use.
Melan-a cells (3×10^5 cells/well) were plated in 2 mL of 12-well multidishes for at least 24 hrs prior to use. […] Melanin content was measured using a sulphorhodamine B (SRB) combined assay (Lam R Y et al., J Ethnopharmacol, 132(1):274-9 (2010); Chinese patent application publication no. CN 104758191 A) to ensure any reduction in the melanin content was not due to the death of melan-a cells. As the colorimetric-based SRB assay could accurately estimate the number of viable cells, the melanin level was expressed as melanin content versus each single cell by taking into account the results of viable cells from the SRB assay. […] After a 72 h incubate, cell number was counted using SRB assay. […] The OD value was read at 595 nm. […]

[2] = test system: tyrosinase-related protein-2 (TRP2); assay: Western blotting of TRP-2 protein level in melan-a cells; type: cell-based, murine; details: α-MSH, 72 hrs, 20 μM
Procedure: (§1) Melan-a cells (3×10^5 cells/well) were seeded in 4 mL of culture medium in a 6-well plate for at least 24 hrs prior to use. The cells were treated with α-MSH (1 μM) alone, α-MSH plus plus different concentration of agents for 72 hrs. The cells were washed with cold PBS and then lysed in 100 μL of RIPA buffer containing 1% Nonidet P-40, 0.1% sodium dodecylsulfate, 0.5% sodium deoxycholate, and 2% protease inhibitor at 4° C. Samples were centrifuged at 14,000 rpm for 30 mins at 4° C., and total proteins in the supernatant were separated. 10 μg of denatured proteins were loaded per lane, and separated by 10% SDS-PAGE gel. Proteins were then transferred to Immobilon-P Transfer Membranes (Millipore Co., Bed-ford, Mass.) by semidry transfer. Membranes were incubated with primary antibodies specific for Tyrosinase, tyrosinase-related protein-1 (TRP1), tyrosinase-related protein-2 (TRP2), and microphthalmia-associated transcription factor (MITF). The blots were subsequently washed and incubated with the appropriate secondary antibodies. Immunoreactive protein bands were visualized with enhanced chemiluminescence western blotting detection reagents and quantified using an ODYSSEY Fc Imaging system. The amounts of protein loaded were normalized against a control protein, β-actin.

[3] = test system: microphthalmia-associated transcription factor (MITF); assay: Western blotting of MITF expression in melan-a cells; type: cell-based, murine; details: α-MSH, 72 hrs, 20 μM
Procedure: as §1

[4] = test system: MelanoDerm (Mel-300-A) epidermal equivalents containing melanocytes; assay: Fontana-Masson silver staining of artificial skin model; type: cell-based, human; details: day 14, rapamycin 2.5 μM, 6-CEPN 10 μM
Procedure: Epidermal equivalents containing melanocytes (Mel-300-A) were maintained according to the manufacturer's instructions. Mel-300-A tissue was cultured in EPI-100-NMM-113 medium for 14 days. Agents were dissolved in tissue culture medium and changed every other day. The test agents were either (1) rapamycin (2.5 μM), as the positive control in depigmentation, (2) 6-CEPN (10 μM), or (3) 8-CEPQ (5 μM). The concentration of rapamycin used was lower than 6-CEPN and 8-CEPQ, as rapamycin is toxic to cells at higher concentration. Pigmentation of these skin equivalents was compared against treatment of cells with a culture medium only (denoted as “vehicle”). Tissue viability was assessed on day 14 by CCK-8 assay as described in Example 1. On day 14, single tissues were harvested and photographed. The L* parameter was used to evaluate skin lightening or darkening. The lighter the skin, the greater the L* value. ΔL* value was measured by a Chroma Meter CR400 (Konica Minolta) for an evaluation of lightening as a function of time. Three tissues for each treatment were frozen for the Solvable Melanin assay (Bessou-Touya et al., “Chimeric human epidermal reconstructs to study the role of melanocytes and keratinocytes in pigmentation and photoprotection.” Journal of investigative dermatology 111(6):1103-1108 (1998)). Additional tissues were fixed by 10% formanin. For melanin staining in paraffin-embedded tissues, Fontana-Masson silver staining was used as previously detailed (Barbosa et al., “A simple and economical modification of the Masson-Fontana method for staining melanin granules and enterochromaffin cells.” Stain technology 59(4):193-196 (1984)).

O=C1C[C@@H](c2ccc(O)cc2)Oc2cc(O)c(/C=C/c3ccccc3)c(O)c21 [6-CEPN, 6-C-(E-phenylethenyl)-naringenin]
depigmenting effects (in words) [1]: much stronger depigmenting effects than kojic acid
depigmentation ([1]; 20 μM): ~80%
protein level of TRP-2 [2]: significantly suppressed
expression of MITF [3]: no clear inhibition
melanin content and distribution (Fontana Masson staining) [4]: significant decrease in the melanin content and distribution
thickness of basal layer of tissue [4]: without causing reduction in the thickness of basal layer of tissue

Reference: patent US10973748B2, “Compositions and methods for lightening skin and reducing hyperpigmentation” (Versitech Limited, priority 2016, dated 2021)
